Test results from US8796289B2 (AbbVie Inc., priority 2011, dated 2014).

biological target: GST-tagged-Wee1 kinase (Homo sapiens, UniProt P30291); test: Wee1 time-resolved fluorescence equilibrium binding assay (displacement of Oregon Green-labeled ATP-competitive kinase probe)
Method: Wee1 kinase was assayed using a time-resolved fluorescence equilibrium binding assay monitoring displacement of a rapidly reversible Oregon Green-labeled ATP-competitive kinase probe (N-(2-(2-(2-(4-(4-(5-chloro-4-(2-(1-hydroxycyclobutyl)thiazol-5-yl)-1H-pyrrolo[2,3-b]pyridin-2-yl)phenyl)piperazin-1-yl)ethoxy)ethoxy)ethyl)-2′,7′-difluoro-3′,6′-dihydroxy-3-oxo-3H-spiro[isobenzofuran-1,9′-xanthene]-5-carboxamide) by competitive Wee1 inhibitors.

Sequence of GST-tagged-Wee1 kinase (P30291 whole entry): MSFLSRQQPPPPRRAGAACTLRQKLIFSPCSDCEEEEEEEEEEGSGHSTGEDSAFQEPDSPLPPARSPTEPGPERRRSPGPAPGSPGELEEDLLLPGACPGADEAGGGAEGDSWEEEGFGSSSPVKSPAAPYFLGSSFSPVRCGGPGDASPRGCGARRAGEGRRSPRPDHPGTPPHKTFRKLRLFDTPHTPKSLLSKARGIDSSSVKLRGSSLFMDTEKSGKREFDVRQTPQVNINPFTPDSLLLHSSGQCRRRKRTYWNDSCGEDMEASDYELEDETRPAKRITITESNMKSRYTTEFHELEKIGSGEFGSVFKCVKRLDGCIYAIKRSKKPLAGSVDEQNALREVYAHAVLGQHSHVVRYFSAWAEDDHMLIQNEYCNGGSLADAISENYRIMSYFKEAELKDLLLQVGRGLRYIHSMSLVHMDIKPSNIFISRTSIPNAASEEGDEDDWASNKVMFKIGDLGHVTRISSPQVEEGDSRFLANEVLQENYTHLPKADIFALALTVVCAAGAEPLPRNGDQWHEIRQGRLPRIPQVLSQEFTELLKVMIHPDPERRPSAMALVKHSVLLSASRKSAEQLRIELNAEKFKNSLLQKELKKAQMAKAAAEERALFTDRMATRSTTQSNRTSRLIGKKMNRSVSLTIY

Compound	Ki
CN1CCN(c2ccc(Nc3ncc4c(=O)n(-c5c(F)cccc5Cl)nc(-c5cnn(C)c5)c4n3)cc2)CC1 [Example 302, 6-(2-chloro-6-fluorophenyl)-2-{[4-(4-methylpiperazin-1-yl)phenyl]amino}-8-(1-methyl-1H-pyrazol-4-yl)pyrimido[4,5-d]pyridazin-5(6H)-one]	0.61 nM
CN1CCN(c2ccc(Nc3ncc4c(=O)n(-c5c(F)cccc5Cl)nc(-c5cccc(O)n5)c4n3)cc2)CC1 [Example 303, 6-(2-chloro-6-fluorophenyl)-8-(6-hydroxypyridin-2-yl)-2-{[4-(4-methylpiperazin-1-yl)phenyl]amino}pyrimido[4,5-d]pyridazin-5(6H)-one]	2.8 nM
CN1Cc2cc(Nc3ncc4c(=O)n(C5CCNCC5)nc(-c5ccccn5)c4n3)ccc2C(C)(C)C1 [Example 304, 6-(piperidin-4-yl)-8-(pyridin-2-yl)-2-[(2,4,4-trimethyl-1,2,3,4-tetrahydroisoquinolin-7-yl)amino]pyrimido[4,5-d]pyridazin-5(6H)-one]	610 nM
CC1(C)CNCc2cc(Nc3ncc4c(=O)n(C5CCNCC5)nc(-c5ccccn5)c4n3)ccc21 [Example 305, 2-[(4,4-dimethyl-1,2,3,4-tetrahydroisoquinolin-7-yl)amino]-6-(piperidin-4-yl)-8-(pyridin-2-yl)pyrimido[4,5-d]pyridazin-5(6H)-one]	840 nM
CC1(C)CNCc2cc(Nc3ncc4c(=O)n(-c5cccc6ccccc56)nc(-c5ccccn5)c4n3)ccc21 [Example 306, 2-[(4,4-dimethyl-1,2,3,4-tetrahydroisoquinolin-7-yl)amino]-6-(naphthalen-1-yl)-8-(pyridin-2-yl)pyrimido[4,5-d]pyridazin-5(6H)-one]	50 nM
CN1CCN(c2ccc(Nc3ncc4c(=O)n(-c5c(Cl)cccc5Cl)nc(-c5cncs5)c4n3)cc2)CC1 [Example 307, 6-(2,6-dichlorophenyl)-2-{[4-(4-methylpiperazin-1-yl)phenyl]amino}-8-(1,3-thiazol-5-yl)pyrimido[4,5-d]pyridazin-5(6H)-one]	1.4 nM
CN1CCN(c2ccc(Nc3ncc4c(=O)n(-c5c(F)cccc5Cl)nc(-c5ccccn5)c4n3)cc2)CC1 [Example 309, 6-(2-chloro-6-fluorophenyl)-2-{[4-(4-methylpiperazin-1-yl)phenyl]amino}-8-(pyridin-2-yl)pyrimido[4,5-d]pyridazin-5(6H)-one]	680 nM
CN1CCN(c2ccc(Nc3ncc4c(=O)n(-c5cnccc5O)nc(-c5ccccn5)c4n3)cc2)CC1 [Example 310, 6-(4-hydroxypyridin-3-yl)-2-{[4-(4-methylpiperazin-1-yl)phenyl]amino}-8-(pyridin-2-yl)pyrimido[4,5-d]pyridazin-5(6H)-one]	3.6 nM
O=c1c2cnc(Nc3ccc4c(c3)CNCC43CC3)nc2c(-c2cncs2)nn1-c1c(Cl)cccc1Cl [Example 315, 6-(2,6-dichlorophenyl)-2-(2′,3′-dihydro-1′H-spiro[cyclopropane-1,4′-isoquinolin]-7′-ylamino)-8-(1,3-thiazol-5-yl)pyrimido[4,5-d]pyridazin-5(6H)-one]	1.9 nM
CN1CCN(c2ccc(Nc3ncc4c(=O)n(-c5c(Cl)cccc5Cl)nc(-c5nccs5)c4n3)cc2)CC1 [Example 316, 6-(2,6-dichlorophenyl)-2-{[4-(4-methylpiperazin-1-yl)phenyl]amino}-8-(1,3-thiazol-2-yl)pyrimido[4,5-d]pyridazin-5(6H)-one]	1.8 nM
O=c1c2cnc(Nc3ccc4c(c3)CNCC4)nc2c(-c2cncs2)nn1-c1c(Cl)cccc1Cl [Example 318, 6-(2,6-dichlorophenyl)-2-(1,2,3,4-tetrahydroisoquinolin-7-ylamino)-8-(1,3-thiazol-5-yl)pyrimido[4,5-d]pyridazin-5(6H)-one]	0.26 nM
O=c1c2cnc(Nc3ccc(N4CCNCC4)cc3)nc2c(-c2cncs2)nn1-c1c(Cl)cccc1Cl [Example 319, 6-(2,6-dichlorophenyl)-2-{[4-(piperazin-1-yl)phenyl]amino}-8-(1,3-thiazol-5-yl)pyrimido[4,5-d]pyridazin-5(6H)-one]	0.39 nM
O=c1c2cnc(Nc3ccc(N4CCN(C5COC5)CC4)cc3)nc2c(-c2ccncc2)nn1-c1c(Cl)cccc1Cl [Example 321, 6-(2,6-dichlorophenyl)-2-({4-[4-(oxetan-3-yl)piperazin-1-yl]phenyl}amino)-8-(pyridin-4-yl)pyrimido[4,5-d]pyridazin-5(6H)-one]	0.8 nM
CN1CCC(n2nc(-c3ccccn3)c3nc(Nc4ccc(N5CCNCC5)cc4)ncc3c2=O)CC1 [Example 322, 6-(1-methylpiperidin-4-yl)-2-{[4-(piperazin-1-yl)phenyl]amino}-8-(pyridin-2-yl)pyrimido[4,5-d]pyridazin-5(6H)-one]	> 3140 nM
CN1CCN(c2ccc(Nc3ncc4c(=O)n(-c5c(Cl)cccc5Cl)ncc4n3)cc2)CC1 [Example 323, 6-(2,6-dichlorophenyl)-2-{[4-(4-methylpiperazin-1-yl)phenyl]amino}pyrimido[4,5-d]pyridazin-5(6H)-one]	0.49 nM
O=c1c2cnc(Nc3ccc(N4CCNCC4)cc3)nc2cnn1-c1c(Cl)cccc1Cl [Example 325, 6-(2,6-dichlorophenyl)-2-{[4-(piperazin-1-yl)phenyl]amino}pyrimido[4,5-d]pyridazin-5(6H)-one]	0.7 nM
O=c1c2cnc(Nc3ccc4c(c3)CNCC43CC3)nc2cnn1-c1c(Cl)cccc1Cl [Example 326, 6-(2,6-dichlorophenyl)-2-(2′,3′-dihydro-1′H-spiro[cyclopropane-1,4′-isoquinolin]-7′-ylamino)pyrimido[4,5-d]pyridazin-5(6H)-one]	0.53 nM
O=c1c2cnc(Nc3ccc4c(c3)CNCC4)nc2cnn1-c1c(Cl)cccc1Cl [Example 327, 6-(2,6-dichlorophenyl)-2-(1,2,3,4-tetrahydroisoquinolin-7-ylamino)pyrimido[4,5-d]pyridazin-5(6H)-one]	0.93 nM
CN1CCC(n2nc(-c3ccccn3)c3nc(Nc4ccc5c(c4)CNCC5(C)C)ncc3c2=O)CC1 [Example 329, 2-[(4,4-dimethyl-1,2,3,4-tetrahydroisoquinolin-7-yl)amino]-6-(1-methylpiperidin-4-yl)-8-(pyridin-2-yl)pyrimido[4,5-d]pyridazin-5(6H)-one]	27 nM
CC1CCCC(C)C1n1nc(-c2ccccn2)c2nc(Nc3ccc4c(c3)CNCC4(C)C)ncc2c1=O (stereo not drawn) [Example 331, 6-(2,6-dimethylcyclohexyl)-2-[(4,4-dimethyl-1,2,3,4-tetrahydroisoquinolin-7-yl)amino]-8-(pyridin-2-yl)pyrimido[4,5-d]pyridazin-5(6H)-one]	180 nM

The next lines start with the values.

Ki	Compound
1 nM	Cc1nn(-c2c(F)cccc2Cl)c(=O)c2cnc(Nc3ccc4c(c3)CNCC43CC3)nc12 [Example 308]
1 nM	Cc1nn(-c2c(F)cccc2Cl)c(=O)c2cnc(Nc3ccc4c(c3)CN(C)CC4(C)C)nc12 [Example 311, 6-(2-chloro-6-fluorophenyl)-8-methyl-2-[(2,4,4-trimethyl-1,2,3,4-tetrahydroisoquinolin-7-yl)amino]pyrimido[4,5-d]pyridazin-5(6H)-one]
1.9 nM	Cc1nn(-c2c(F)cccc2Cl)c(=O)c2cnc(Nc3ccc(N4CCN(C)CC4)cc3)nc12 [Example 312, 6-(2-chloro-6-fluorophenyl)-8-methyl-2-{[4-(4-methylpiperazin-1-yl)phenyl]amino}pyrimido[4,5-d]pyridazin-5(6H)-one]
2.6 nM	Cc1nn(-c2c(F)cccc2Cl)c(=O)c2cnc(Nc3ccc4c(c3)CN(C)CC43CC3)nc12 [Example 313, 6-(2-chloro-6-fluorophenyl)-8-methyl-2-[(2′-methyl-2′,3′-dihydro-1′H-spiro[cyclopropane-1,4′-isoquinolin]-7′-yl)amino]pyrimido[4,5-d]pyridazin-5(6H)-one]
1.2 nM	Cc1nn(-c2c(Cl)cccc2Cl)c(=O)c2cnc(Nc3ccc(N4CCN(C)CC4)cc3)nc12 [Example 314, 6-(2,6-dichlorophenyl)-8-methyl-2-{[4-(4-methylpiperazin-1-yl)phenyl]amino}pyrimido[4,5-d]pyridazin-5(6H)-one]
0.38 nM	CN1Cc2cc(Nc3ncc4c(=O)n(-c5c(Cl)cccc5Cl)nc(-c5cncs5)c4n3)ccc2C2(CC2)C1 [Example 317, 6-(2,6-dichlorophenyl)-2-[(2′-methyl-2′,3′-dihydro-1′H-spiro[cyclopropane-1,4′-isoquinolin]-7′-yl)amino]-8-(1,3-thiazol-5-yl)pyrimido[4,5-d]pyridazin-5(6H)-one]
0.49 nM	CN1Cc2cc(Nc3ncc4c(=O)n(-c5c(Cl)cccc5Cl)nc(-c5nccs5)c4n3)ccc2C2(CC2)C1 [Example 320, 6-(2,6-dichlorophenyl)-2-[(2′-methyl-2′,3′-dihydro-1′H-spiro[cyclopropane-1,4′-isoquinolin]-7′-yl)amino]-8-(1,3-thiazol-2-yl)pyrimido[4,5-d]pyridazin-5(6H)-one]
0.2 nM	CN1Cc2cc(Nc3ncc4c(=O)n(-c5c(Cl)cccc5Cl)ncc4n3)ccc2C2(CC2)C1 [Example 324, 6-(2,6-dichlorophenyl)-2-[(2′-methyl-2′,3′-dihydro-1′H-spiro[cyclopropane-1,4′-isoquinolin]-7′-yl)amino]pyrimido[4,5-d]pyridazin-5(6H)-one]
220 nM	CN1CCC(n2nc(-c3ccccn3)c3nc(Nc4ccc5c(c4)CN(C)CC5(C)C)ncc3c2=O)CC1 [Example 328, 6-(1-methylpiperidin-4-yl)-8-(pyridin-2-yl)-2-[(2,4,4-trimethyl-1,2,3,4-tetrahydroisoquinolin-7-yl)amino]pyrimido[4,5-d]pyridazin-5(6H)-one]
260 nM	CC1CCCC(C)C1n1nc(-c2ccccn2)c2nc(Nc3ccc4c(c3)CN(C)CC4(C)C)ncc2c1=O (stereo not drawn) [Example 330, 6-(2,6-dimethylcyclohexyl)-8-(pyridin-2-yl)-2-[(2,4,4-trimethyl-1,2,3,4-tetrahydroisoquinolin-7-yl)amino]pyrimido[4,5-d]pyridazin-5(6H)-one]
